Test results taken from patent US20230017786A1, “DEXTR[…] A DISEASE-MODIFYING TREATMENT FOR NEUROPSYCHIATRIC DISORDERS AND DISEASES” (priority 2020, published 2023).

Tests used:
Type in all cases: cell-based
[1] = molecular target: T1, human NMDA receptor GluN1-GluN2B (Homo sapiens, UniProt Q05586+Q13224); assay: FLIPR calcium assay, quinolinic acid, gentamicin, dextromethadone (Example 5 Part II), GluN1-GluN2B-CHO
T1 construct: expressed in transfected cells; host or cells: CHO
Description: (§1) Quinolinic acid or gentamicin CRCs were also produced, in presence of 10 μM glycine.
(§2) Test items were evaluated in FLIPR for their ability to modulate, alone or in combination, calcium entry in presence of […], using four CHO cell lines expressing diheteromeric human NMDA receptor (NMDAR): GluN-/GluN2A-CHO, GluN1-GluN2B-CHO, GluN1-GluN2C-CHO, GluN1-GluN2D-CHO.
(§3) The first aim of the study was to evaluate quinolinic acid or gentamicin CRC effect in the presence of 10 μM glycine.
(§4) FLIPR determination of intracellular calcium level was used as a read-out for NMDAR activation.
(§5) 400× compound plate was stored at −20° C. till FLIPR experimental day.
(§6) A 4× compound plate was generated from 400× compound plate by addition of up to 30 μl/well of compound buffer on FLIPR experimental day.
(§7) A FLIPR system was used to monitor intracellular calcium level in NMDAR cell lines, pre-loaded for 1 hour with Fluo-4, and then washed with assay buffer.
(§8) Y=Bottom+(Top−Bottom)/(1+10^((LogEC50−X)*HillSlope))
(§9) Test item CRC data were plotted by Prism 8 GraphPad software, in the different experimental conditions. And, column analysis, performed by Prism 8 GraphPad software, was one way ANOVA followed by Tukey's multiple comparisons test, with a single pooled variance.

[2] = molecular target: T2, recombinant human NMDAR GluN1 plus GluN2D (Homo sapiens, UniProt O15399+Q05586); assay: FLIPR calcium assay, gentamicin as PAM (Example 5 Part I), GluN2D cell line; settings: 10 μM test item; dextromethadone in presence and absence of 10 μM gentamicin
T2 construct: expressed in transfected cells; host or cells: CHO
T2 sequence (O15399 28-1336, other chains not shown): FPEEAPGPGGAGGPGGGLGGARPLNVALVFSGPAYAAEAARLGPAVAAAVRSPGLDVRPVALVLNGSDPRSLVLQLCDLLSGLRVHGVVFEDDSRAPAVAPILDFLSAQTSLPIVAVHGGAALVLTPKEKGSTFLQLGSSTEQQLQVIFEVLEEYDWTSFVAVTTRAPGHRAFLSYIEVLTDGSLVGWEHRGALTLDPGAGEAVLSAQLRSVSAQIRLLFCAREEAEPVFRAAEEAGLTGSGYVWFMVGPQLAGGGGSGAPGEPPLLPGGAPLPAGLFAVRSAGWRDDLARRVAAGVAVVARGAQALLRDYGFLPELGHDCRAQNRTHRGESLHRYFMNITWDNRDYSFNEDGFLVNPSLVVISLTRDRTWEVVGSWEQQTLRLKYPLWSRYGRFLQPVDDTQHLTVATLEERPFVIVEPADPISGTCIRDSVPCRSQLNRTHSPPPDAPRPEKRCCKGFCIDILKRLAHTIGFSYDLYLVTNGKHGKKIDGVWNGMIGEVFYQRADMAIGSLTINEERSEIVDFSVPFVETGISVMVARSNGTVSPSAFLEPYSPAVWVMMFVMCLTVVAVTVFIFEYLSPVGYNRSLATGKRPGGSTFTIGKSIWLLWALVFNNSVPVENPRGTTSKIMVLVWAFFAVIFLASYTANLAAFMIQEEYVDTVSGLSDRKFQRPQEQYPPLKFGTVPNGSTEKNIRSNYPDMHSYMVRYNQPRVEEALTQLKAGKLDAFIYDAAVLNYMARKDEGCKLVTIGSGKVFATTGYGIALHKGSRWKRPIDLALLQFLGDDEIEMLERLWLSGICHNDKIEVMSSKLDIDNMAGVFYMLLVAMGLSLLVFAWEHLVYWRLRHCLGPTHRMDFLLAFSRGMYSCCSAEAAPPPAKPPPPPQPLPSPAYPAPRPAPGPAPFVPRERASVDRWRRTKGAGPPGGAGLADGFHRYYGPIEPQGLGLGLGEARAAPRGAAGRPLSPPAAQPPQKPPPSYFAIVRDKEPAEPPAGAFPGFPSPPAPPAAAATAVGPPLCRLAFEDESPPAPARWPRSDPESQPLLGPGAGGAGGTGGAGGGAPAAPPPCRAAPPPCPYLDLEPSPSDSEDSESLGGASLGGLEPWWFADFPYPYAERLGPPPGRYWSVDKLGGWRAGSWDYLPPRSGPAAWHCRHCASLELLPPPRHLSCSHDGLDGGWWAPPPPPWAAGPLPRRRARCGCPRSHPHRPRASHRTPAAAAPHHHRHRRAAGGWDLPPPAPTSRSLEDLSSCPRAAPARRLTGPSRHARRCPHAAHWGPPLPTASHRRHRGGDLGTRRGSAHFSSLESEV
Excerpt: (§10) A FLIPR calcium assay was used to profile gentamicin using stable cell lines expressing diheteromeric recombinant human NMDARs, containing GluN1 plus one amongst GluN2A, GluN2B, GluN2C or GluN2D subunit.

[3] = molecular target: T3, human NMDA receptor GluN1-GluN2A (Homo sapiens, UniProt Q05586+Q12879); assay: FLIPR calcium assay, quinolinic acid, gentamicin, dextromethadone (Example 5 Part II), GluN1-GluN2A-CHO; parameters: calcium response (mean±SEM): unit not given here
T3 construct: expressed in transfected cells; host or cells: CHO
Description: as §1, §2, §3, §4, §5, §6, §7, §8, §9

[4] = molecular target: T4, recombinant human NMDAR GluN1 plus GluN2B (Homo sapiens, UniProt Q05586+Q13224); assay: FLIPR calcium assay, gentamicin as PAM (Example 5 Part I), GluN2B cell line; settings: 10 μM test item; dextromethadone in presence and absence of 10 μM gentamicin
T4 construct: expressed in transfected cells; host or cells: CHO
T4 sequence (Q13224 27-1484, other chains not shown): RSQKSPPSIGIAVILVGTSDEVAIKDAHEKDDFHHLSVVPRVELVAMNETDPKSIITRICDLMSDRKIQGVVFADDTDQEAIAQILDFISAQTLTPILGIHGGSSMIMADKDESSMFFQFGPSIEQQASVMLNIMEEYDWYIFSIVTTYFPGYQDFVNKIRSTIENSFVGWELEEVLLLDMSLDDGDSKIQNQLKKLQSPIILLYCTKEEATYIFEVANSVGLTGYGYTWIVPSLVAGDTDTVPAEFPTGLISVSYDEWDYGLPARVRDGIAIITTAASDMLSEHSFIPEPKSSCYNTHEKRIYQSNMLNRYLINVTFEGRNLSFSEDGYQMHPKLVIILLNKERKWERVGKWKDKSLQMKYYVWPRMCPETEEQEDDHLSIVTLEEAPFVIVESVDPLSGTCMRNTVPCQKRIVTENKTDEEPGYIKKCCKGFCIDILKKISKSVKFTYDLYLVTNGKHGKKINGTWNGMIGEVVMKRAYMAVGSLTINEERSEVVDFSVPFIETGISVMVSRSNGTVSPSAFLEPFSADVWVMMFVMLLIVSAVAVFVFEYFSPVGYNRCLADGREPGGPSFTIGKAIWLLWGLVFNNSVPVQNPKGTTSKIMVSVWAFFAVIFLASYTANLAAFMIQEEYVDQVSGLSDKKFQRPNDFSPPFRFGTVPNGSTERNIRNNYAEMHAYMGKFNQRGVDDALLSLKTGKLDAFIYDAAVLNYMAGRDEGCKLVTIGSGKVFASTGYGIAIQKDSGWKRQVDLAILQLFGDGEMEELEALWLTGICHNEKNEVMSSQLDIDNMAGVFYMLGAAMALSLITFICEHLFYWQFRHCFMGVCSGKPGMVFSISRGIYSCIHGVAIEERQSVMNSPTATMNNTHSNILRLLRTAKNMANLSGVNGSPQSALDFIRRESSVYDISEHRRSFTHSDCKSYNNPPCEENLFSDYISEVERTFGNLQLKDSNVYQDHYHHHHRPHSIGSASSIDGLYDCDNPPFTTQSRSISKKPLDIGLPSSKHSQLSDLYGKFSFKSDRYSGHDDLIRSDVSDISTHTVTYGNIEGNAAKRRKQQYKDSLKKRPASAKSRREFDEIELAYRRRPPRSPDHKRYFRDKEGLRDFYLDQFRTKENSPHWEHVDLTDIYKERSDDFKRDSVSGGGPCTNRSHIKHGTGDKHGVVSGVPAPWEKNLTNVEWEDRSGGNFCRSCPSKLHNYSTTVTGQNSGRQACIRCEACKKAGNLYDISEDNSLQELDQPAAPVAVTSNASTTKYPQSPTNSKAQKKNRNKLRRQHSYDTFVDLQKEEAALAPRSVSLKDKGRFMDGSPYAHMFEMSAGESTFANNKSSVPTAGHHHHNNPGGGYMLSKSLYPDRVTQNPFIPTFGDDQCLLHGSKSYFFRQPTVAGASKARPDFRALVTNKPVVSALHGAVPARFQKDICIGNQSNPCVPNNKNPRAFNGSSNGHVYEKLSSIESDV
Excerpt: as §10

[5] = molecular target: T5, human NMDA receptor GluN1-GluN2D (Homo sapiens, UniProt O15399+Q05586); assay: FLIPR calcium assay, quinolinic acid, gentamicin, dextromethadone (Example 5 Part II), GluN1-GluN2D-CHO
T5 construct: expressed in transfected cells; host or cells: CHO
T5 sequence (O15399 28-1336, other chains not shown): as the sequence (O15399 28-1336, other chains not shown) above
Description: as §1, §2, §3, §4, §5, §6, §7, §8, §9

[6] = molecular target: T6, recombinant human NMDAR GluN1 plus GluN2C (Homo sapiens, UniProt Q05586+Q14957); assay: FLIPR calcium assay, gentamicin as PAM (Example 5 Part I), GluN2C cell line; settings: 10 μM test item; dextromethadone in presence and absence of 10 μM gentamicin
T6 construct: expressed in transfected cells; host or cells: CHO
Excerpt: as §10

[7] = molecular target: T7, human NMDA receptor GluN1-GluN2C (Homo sapiens, UniProt Q05586+Q14957); assay: FLIPR calcium assay, quinolinic acid, gentamicin, dextromethadone (Example 5 Part II), GluN1-GluN2C-CHO
T7 construct: expressed in transfected cells; host or cells: CHO
Description: as §1, §2, §3, §4, §5, §6, §7, §8, §9

[8] = molecular target: T8, recombinant human NMDAR GluN1 plus GluN2A (Homo sapiens, UniProt Q05586+Q12879); assay: FLIPR calcium assay, gentamicin as PAM (Example 5 Part I), GluN2A cell line; settings: 10 μM test item; dextromethadone in presence and absence of 10 μM gentamicin
T8 construct: expressed in transfected cells; host or cells: CHO
Excerpt: as §10

[9] = CRC in presence of 10 μM glycine
[10] = CRC in presence of 10 μM glycine, no glutamate
[11] = gentamicin CRC, max 100, 10 μM glycine

T1 sequence (Q13224 27-1484, other chains not shown): as the sequence (Q13224 27-1484, other chains not shown) above

In the case of Gentamicin sulfate, the “EC50” value ([1]; 10 μM glycine) is reported as over 100 mg/L, the “calcium response (mean±SEM)” value ([1]; 1000 μM QA + 10 μg/ml GENT, 10 μM glycine, GluN2B, n=42) is reported as 37 ± 1.4 and the “Minimal response (%)” value [1, 9] is reported as −3.7%. The pEC50 [1, 10] was under 4, the “Response at max conc (%)” value [1, 11] was 0.7% and the “calcium entry induced by 0.04 μM L-glutamate” value [2] was “significantly increased”. For the same substance, the “calcium entry induced by 0.2 μM L-glutamate” value [2] was “decreased calcium entry”, the “calcium entry induced by 10 μM L-glutamate” value [2] was “did not modify” and the “EC50” value ([3]; 10 μM glycine) was over 100 mg/L. The “% effect on calcium entry, 1000 μM quinolinic acid plus gentamicin” value ([3]; 10 μg/ml gentamicin, 10 μM glycine) was 47±1.1%, the “calcium response (mean±SEM)” value ([3]; 1000 μM QA + 10 μg/ml GENT, 10 μM glycine, GluN2A, n=42) was 47 ± 1.1 and the “Minimal response (%)” value [3, 9] was −3.3%. For the same substance, the pEC50 [3, 10] was under 4, the “Response at max conc (%)” value [3, 11] was 0.1% and the “calcium entry induced by 0.04 μM L-glutamate” value [4] was “significantly increased”. The “calcium entry induced by 0.2 μM L-glutamate” value [4] was “significantly increased”, the “calcium entry induced by 10 μM L-glutamate” value [4] was “did not modify” and the “EC50” value ([5]; 10 μM glycine) was over 100 mg/L. For the same substance, the “calcium response (mean±SEM)” value ([5]; 1000 μM QA + 10 μg/ml GENT, 10 μM glycine, GluN2D, n=42) was 53 ± 1.7, the “Minimal response (%)” value [5, 9] was −3.2% and the pEC50 [5, 10] was under 4. The “Response at max conc (%)” value [5, 11] was 1.0%, the “calcium entry induced by 0.04 μM L-glutamate” value [6] was “significantly increased” and the “calcium entry induced by 10 μM L-glutamate” value [6] was “significantly decreased”. The “EC50” value ([7]; 10 μM glycine) was over 100 mg/L, the “calcium response (mean±SEM)” value ([7]; 1000 μM QA + 10 μg/ml GENT, 10 μM glycine, GluN2C, n=42) was 5.6 ± 0.4 and the “Minimal response (%)” value [7, 9] was −8.2%. The pEC50 [7, 10] was under 4, the “Response at max conc (%)” value [7, 11] was 0.03% and the “calcium entry induced by 0.04 μM L-glutamate” value [8] was “significantly increased”. For the same substance, the “calcium entry induced by 0.2 μM L-glutamate” value [8] was “significantly increased” and the “calcium entry induced by 10 μM L-glutamate” value [8] was “significantly decreased”.
